# System: hepatocellular carcinoma cell line Hub-7
# Assay: Cell proliferation assay, Hub-7 (CELL-TITER GLO)
# Format: cell-based
# Settings: Hub-7 cells, 24 h incubation, cell viability by CELL-TITER GLO, top concentration 10 μM; read-out: EC50, Inhibition of Hub-7 Cell Proliferation
# Outline: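 Hub-7 cells, 4,000 per well, seeded overnight, then exposed 24 h to compound from 10 μM top in 3-fold serial dilution. Viability read by CELL-TITER GLO luminescence; EC50 derived and binned into potency categories.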
row,EC50,Compound
1,1000 to 5000 nM,"C#Cc1nc(C(=O)NCCc2ccc(NS(C)(=O)=O)cc2)cs1 [Compound C99, 2-Ethynyl-N-(4-(methylsulfonamido)phenethyl)thiazole-4-carboxamide]"
2,> 5000 nM,"C#Cc1nc(C(=O)NCCc2ccc(S(C)(=O)=O)cc2)cs1 [Compound C101, 2-Ethynyl-N-(4-(methylsulfonyl)phenethyl)thiazole-4-carboxamide]"
3,200 to 1000 nM,"C#Cc1nc(C(=O)NCCc2ccc(C#N)cc2)cs1 [Compound C102, N-(4-Cyanophenethyl)-2-ethynylthiazole-4-carboxamide]"
4,≤ 200 nM,"C#Cc1nc(C(=O)NCc2ccc([N+](=O)[O-])cc2)cs1 [Compound C103, 2-Ethynyl-N-(4-nitrobenzyl)thiazole-4-carboxamide]"
5,200 to 1000 nM,"C#Cc1nc(C(=O)NCc2ccc(C#N)cc2)cs1 [Compound C104, N-(4-Cyanobenzyl)-2-ethynylthiazole-4-carboxamide]"
6,1000 to 5000 nM,"C#Cc1nc(C(=O)NCCc2cccc(S(C)(=O)=O)c2)cs1 [Compound C105, 2-Ethynyl-N-(3-(methylsulfonyl)phenethyl)thiazole-4-carboxamide]"
7,200 to 1000 nM,"C#Cc1nc(C(=O)NCCc2ccccc2Cl)cs1 [Compound C106, N-(2-Chlorophenethyl)-2-ethynylthiazole-4-carboxamide]"
8,200 to 1000 nM,"C#Cc1nc(C(=O)NCCc2cccc(Cl)c2)cs1 [Compound C110, N-(3-Chlorophenethyl)-2-ethynylthiazole-4-carboxamide]"

# Second part, the molecule before the results:
row,Compound,EC50
1,"C#Cc1nc(C(=O)NCc2ccc(-c3cn[nH]c3)cc2)cs1 [Compound C92, N-(4-(1H-Pyrazol-4-yl)benzyl)-2-ethynylthiazole-4-carboxamide]",1000 to 5000 nM
2,"C#Cc1nc(C(=O)NCc2ccc(-c3cccnc3)cc2)cs1 [Compound C93, 2-Ethynyl-N-(4-(pyridin-3-yl)benzyl)thiazole-4-carboxamide]",200 to 1000 nM
3,"C#Cc1nc(C(=O)NCc2cccc(NC(C)=O)c2)cs1 [Compound C94, N-(3-Acetamidobenzyl)-2-ethynylthiazole-4-carboxamide]",1000 to 5000 nM
4,"C#Cc1nc(C(=O)NCc2cccc(N)c2)cs1 [Compound C95, N-(3-Aminobenzyl)-2-ethynylthiazole-4-carboxamide]",1000 to 5000 nM
5,"C#Cc1nc(C(=O)NCc2ccc3ncccc3c2)cs1 [Compound C96, 2-Ethynyl-N-(quinolin-6-ylmethyl)thiazole-4-carboxamide]",1000 to 5000 nM
6,"C#Cc1nc(C(=O)NCCc2cccc(C(=O)OC)c2)cs1 [Compound C97, Methyl 3-(2-(2-ethynylthiazole-4-carboxamido)ethyl)benzoate]",200 to 1000 nM
7,"C#Cc1nc(C(=O)NCc2ccccc2)cn1C [Compound C98, N-Benzyl-2-ethynyl-1-methyl-1H-imidazole-4-carboxamide]",> 5000 nM
8,"C#Cc1nc(C(=O)N(C)CCc2ccc([N+](=O)[O-])cc2)cs1 [Compound C100, 2-Ethynyl-N-methyl-N-(4-nitrophenethyl)thiazole-4-carboxamide]",200 to 1000 nM
9,"C#Cc1nc(C(=O)NCc2cccc([N+](=O)[O-])c2)cs1 [Compound C107, 2-Ethynyl-N-(3-nitrobenzyl)thiazole-4-carboxamide]",200 to 1000 nM
10,"C#Cc1nc(C(=O)NCc2ccc(S(C)(=O)=O)cc2)cs1 [Compound C108, 2-Ethynyl-N-(4-(methylsulfonyl)benzyl)thiazole-4-carboxamide]",1000 to 5000 nM
11,"C#Cc1nc(C(=O)NCc2ncccc2Cl)cs1 [Compound C109, N-((3-Chloropyridin-2-yl)methyl)-2-ethynylthiazole-4-carboxamide]",1000 to 5000 nM
12,"C#Cc1nc(C(=O)NCc2ccccc2)c[nH]1 [Compound C111, N-Benzyl-2-ethynyl-1H-imidazole-4-carboxamide]",> 5000 nM
13,"C#Cc1nc(C(=O)NCc2ccccc2-c2ccccc2)cs1 [Compound C112, N-([1,1′-Biphenyl]-2-ylmethyl)-2-ethynylthiazole-4-carboxamide]",200 to 1000 nM
